Patent EP4722213A1, “NITROGEN-CONTAINING FUNCTIONAL GROUP-SUBSTITUTED PYRIDAZINOPYRIDONE DERIVATIVE AND USE THEREOF” (Sichuan Huiyu Pharmaceutical Co., Ltd., priority 2023, dated 2024)
Where two headings read alike, the source gives them in different places.

What was measured:
[1] = Mouse pharmacokinetic test; assay type: in vivo; settings: plasma, female Balb/c mice, IV 1 mg/kg, PO 10 mg/kg via gavage
Procedure: Female Balb/c mice, weighing 19-21 g, were divided into two groups based on the principle of similar body weight, with 9 mice in each of the IV group and the PO group (for cross blood collection). The IV group was administered the test compound at a dose of 1 mg/kg via intravenous injection, and the PO group was administered the test compound at a dose of 10 mg/kg via gavage. Whole blood was collected from the IV group before administration and at 0.083, 0.25, 0.5, 1, 2, 4, 6, 8, and 24 h after administration; for the PO group, whole blood was collected before administration and at 0.25, 0.5, 1, 2, 4, 6, 8, and 24 h after administration. The blood samples were placed in K2-EDTA anticoagulant tubes, centrifuged (4°C) within 30 minutes to separate plasma, and stored at -80°C for subsequent testing. During sample processing, an appropriate amount of acetonitrile containing an internal standard was used for protein precipitation, vortexed, and after centrifugation, the supernatant was taken for injection into LC-MS/MS for detection. Based on the measured plasma drug concentrations, the main pharmacokinetic parameters were calculated to evaluate its pharmacokinetic behavior. The main pharmacokinetic parameters were analyzed by the non-compartmental model using WinNonLin 8.3 software.

CYP2C19 = target: T1, CYP2C19 (Homo sapiens, UniProt P33261); test: Inhibition of hepatic drug-metabolizing enzymes in human liver microsomes; assay type: in vitro ADME; settings: human liver microsomes; read-out: Inhibitory activity on drug-metabolizing enzymes (IC50, µM) CYP2C19
T1 construct: human liver microsomes were used as the CYP450 enzyme source; from tissue; host or cells: human liver microsomes
Excerpt: (§1) The main site of drug metabolism is the liver, and the main component of the mixed-function oxidase system present in the liver is the CYP450 enzyme. This enzyme system causes most clinically observed drug-drug interactions, which in turn leads to an increased incidence of adverse drug reactions. CYP450 is a group of supergene family composed of many isozymes, wherein CYP3A4 acts as a major metabolizing enzyme and is involved in the metabolism of nearly half of clinically used drugs. Similarly, CYP2C9 and CYP2C19 also act as important metabolizing enzymes and are involved in the metabolism of various drugs clinically. Therefore, evaluating the risk of drug-drug interactions by testing the inhibitory activity of compounds on CYP450 enzymes at an early stage can improve the safety of medication use.
(§2) In the present disclosure, human liver microsomes were used as the CYP450 enzyme source. The specific probe substrates for each CYP isoenzyme (wherein CYP3A4 used two substrates, midazolam and testosterone, denoted as CYP3A4-M and CYP3A4-T respectively) were incubated with a series of concentrations of the test compound in the presence of the cofactor NADPH. The production amount of metabolites of probe substrates in the incubation system was determined by LC-MS/MS, and the IC50 values of the test compound against each CYP450 enzyme subtype were calculated to evaluate its inhibitory effect on each CYP450 enzyme subtype. During the experiment, 49 µL of PBS, 50 µL of probe substrate, and 50 µL of human liver microsome working solution were sequentially added to the incubation system, followed by the addition of 1 µL of the test compound working solution at each concentration, and the mixture was mixed well. After pre-incubation at 37°C for 5 min, 50 µL of NADPH was added to initiate the reaction. After incubation for the corresponding time, an appropriate amount of ice-cold acetonitrile containing an internal standard was added to terminate the reaction. The mixture was vortexed to mix well, centrifuged, and the supernatant was taken. The supernatant was injected into LC-MS/MS to determine the production amount of metabolites of the probe substrate. Taking the enzyme activity at the 0-concentration point (characterized by the production amount of metabolites) as 100%, the percentage of residual enzyme activity of metabolites at different concentrations of the test compound was calculated. IC50 was calculated by the residual enzyme activity using Graphpad Prism software.

CYP2C9 = target: T2, CYP2C9 (Homo sapiens, UniProt P11712); test: as above; assay type: in vitro ADME; settings: human liver microsomes; read-out: Inhibitory activity on drug-metabolizing enzymes (IC50, µM) CYP2C9
T2 construct: human liver microsomes were used as the CYP450 enzyme source; from tissue; host or cells: human liver microsomes
Excerpt: as §1, §2

Rat pharmacokinetic test = assay type: in vivo; settings: plasma, male SD rats, IV 1 mg/kg, PO 5 mg/kg via gavage
Procedure: Male SD rats, weighing 200-250 g, were used and divided into two groups based on the principle of similar body weight, with 3 rats in each of the IV group and the PO group. The IV group was administered the test compound at a dose of 1 mg/kg via intravenous injection, and the PO group was administered the test compound at a dose of 5 mg/kg via gavage. Whole blood was collected from the IV group respectively before administration and at 0.083, 0.25, 0.5, 1, 2, 4, 6, 8, and 24 h after administration; for the PO group, whole blood was collected before administration and at 0.25, 0.5, 1, 2, 4, 6, 8, and 24 h after administration. The blood samples were placed in K2-EDTA anticoagulant tubes, centrifuged (4°C) within 30 min to separate plasma, and stored at -80°C for subsequent testing. During sample processing, an appropriate amount of acetonitrile containing an internal standard was used for protein precipitation, vortexed, and after centrifugation, the supernatant was taken for injection into LC-MS/MS for detection. Based on the measured plasma drug concentrations, the main pharmacokinetic parameters were calculated to evaluate its pharmacokinetic behavior. The main pharmacokinetic parameters were analyzed by the non-compartmental model using WinNonLin 8.3 software.

CYP3A4 = target: T3, CYP3A4 (Homo sapiens, UniProt P08684); test: Inhibition of hepatic drug-metabolizing enzymes in human liver microsomes (substrates midazolam and testosterone); assay type: in vitro ADME
T3 construct: human liver microsomes were used as the CYP450 enzyme source; from tissue; host or cells: human liver microsomes
Excerpt: as §1, §2

[2] = Rat liver microsomal metabolic stability; assay type: in vitro ADME; settings: rat liver microsomes; for half-life at 1 µM: NADPH, 37°C; for CLint scaled at 1 µM: calculated from T1/2, fu defaulted to 1, read-out: CL(liver)
Excerpt: Metabolic stability affects the clearance rate, half-life, and oral bioavailability of compounds in the body, and is one of the most important ADME drug-like properties of compounds. Hepatocyte microsomal stability assay is a commonly used method for studying metabolic stability. In the present disclosure, rat liver microsomes are used to determine and investigate the metabolic stability of compounds.
Preparation of compound stock solution: an appropriate amount of the test compound and testosterone was taken, and a 1 mM stock solution was prepared with DMSO, which was stored in a refrigerator at 4°C.
Preparation of compound working solution: The 1 mM compound stock solution was taken respectively, and then diluted to 100 µM with acetonitrile-water (v:v = 1:1) to obtain the working solution.
Preparation of NADPH working solution: an appropriate amount of NADPH was weighed and dissolved in 16 mM MgCl2 to prepare a NADPH working solution with a concentration of 4.0 mM.
Preparation of rat liver microsome working solution: an appropriate amount of rat liver microsomes was taken and diluted with PBS to obtain a liver microsome working solution with a concentration of 1 mg/mL.
In the incubation system, 48 µL of PBS, 100 µL of rat liver microsome working solution, and 2 µL of the test compound working solution were sequentially added and mixed well. After pre-incubation at 37°C for 5 min, 50 µL of NADPH was added to initiate the reaction. After incubation for the corresponding time points, an appropriate amount of ice-cold acetonitrile containing an internal standard was added to terminate the reaction. The mixture was vortexed to mix well, centrifuged, and the supernatant was collected. The supernatant was injected into LC-MS/MS for detection of the residual metabolic amount of the compound.
Softwares of Excel, etc. were used for data processing according to the following formula. Ct = C0 •e^(−ke •t) [formula] when Ct = (1)/(2)C0 [formula] , T1/2 = (Ln2)/(ke) = (0.693)/(ke) [formula] CLint(mic) = (0.693)/(In vitro T1/2)•(1)/(mg/mL microsomal protein in reaction system) [formula] CLint(liver) = CLint(mic) •(mg microsomes)/(g liver)•(g liver)/(kg body weight) [formula] CL(liver) = (CLint(liver)×fu×Qh)/(CLint(liver)×fu+Qh) [formula] fu (unbound fraction in blood) was defaulted to be 1.

SOS1 = target: T4, SOS1 (Homo sapiens, UniProt Q07889); test: biochemical
T4 sequence (Q07889 1-1333): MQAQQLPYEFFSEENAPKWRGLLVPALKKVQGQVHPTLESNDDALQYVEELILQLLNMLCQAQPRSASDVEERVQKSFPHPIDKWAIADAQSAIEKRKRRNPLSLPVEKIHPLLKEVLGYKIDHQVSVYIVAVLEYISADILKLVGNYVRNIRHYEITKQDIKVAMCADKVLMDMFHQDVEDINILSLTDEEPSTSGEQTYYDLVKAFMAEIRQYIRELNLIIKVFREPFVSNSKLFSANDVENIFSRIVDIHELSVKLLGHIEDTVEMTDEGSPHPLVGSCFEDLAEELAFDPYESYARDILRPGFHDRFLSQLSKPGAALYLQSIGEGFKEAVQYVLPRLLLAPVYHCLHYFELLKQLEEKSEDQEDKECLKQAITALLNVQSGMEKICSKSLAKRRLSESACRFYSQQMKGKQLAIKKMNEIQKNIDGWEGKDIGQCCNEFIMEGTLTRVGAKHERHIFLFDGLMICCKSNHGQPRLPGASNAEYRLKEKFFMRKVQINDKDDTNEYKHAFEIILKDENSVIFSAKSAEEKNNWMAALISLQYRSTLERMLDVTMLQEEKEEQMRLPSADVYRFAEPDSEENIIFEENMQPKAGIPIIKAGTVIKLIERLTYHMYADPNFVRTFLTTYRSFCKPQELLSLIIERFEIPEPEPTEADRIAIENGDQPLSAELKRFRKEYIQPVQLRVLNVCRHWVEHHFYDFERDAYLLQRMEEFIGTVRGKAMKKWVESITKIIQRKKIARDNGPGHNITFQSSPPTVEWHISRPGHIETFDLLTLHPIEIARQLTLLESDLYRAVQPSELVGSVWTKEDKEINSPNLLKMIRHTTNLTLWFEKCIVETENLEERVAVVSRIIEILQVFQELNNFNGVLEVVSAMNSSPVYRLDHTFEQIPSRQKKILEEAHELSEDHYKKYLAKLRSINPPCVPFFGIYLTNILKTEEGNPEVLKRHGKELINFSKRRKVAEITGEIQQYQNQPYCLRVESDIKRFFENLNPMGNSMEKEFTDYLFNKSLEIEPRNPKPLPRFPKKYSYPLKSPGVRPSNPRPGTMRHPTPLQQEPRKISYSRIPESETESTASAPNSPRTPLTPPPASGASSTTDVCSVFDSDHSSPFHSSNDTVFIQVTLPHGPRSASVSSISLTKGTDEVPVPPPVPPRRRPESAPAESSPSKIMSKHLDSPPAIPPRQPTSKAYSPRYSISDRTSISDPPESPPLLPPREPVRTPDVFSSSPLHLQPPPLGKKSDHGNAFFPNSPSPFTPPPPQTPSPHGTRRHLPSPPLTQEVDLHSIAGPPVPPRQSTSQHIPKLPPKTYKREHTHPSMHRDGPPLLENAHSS

[3] = substrate midazolam, read-out: Inhibitory activity on drug-metabolizing enzymes (IC50, µM) CYP3A4-M
[4] = substrate testosterone, read-out: Inhibitory activity on drug-metabolizing enzymes (IC50, µM) CYP3A4-T

T3 sequence (P08684 whole entry): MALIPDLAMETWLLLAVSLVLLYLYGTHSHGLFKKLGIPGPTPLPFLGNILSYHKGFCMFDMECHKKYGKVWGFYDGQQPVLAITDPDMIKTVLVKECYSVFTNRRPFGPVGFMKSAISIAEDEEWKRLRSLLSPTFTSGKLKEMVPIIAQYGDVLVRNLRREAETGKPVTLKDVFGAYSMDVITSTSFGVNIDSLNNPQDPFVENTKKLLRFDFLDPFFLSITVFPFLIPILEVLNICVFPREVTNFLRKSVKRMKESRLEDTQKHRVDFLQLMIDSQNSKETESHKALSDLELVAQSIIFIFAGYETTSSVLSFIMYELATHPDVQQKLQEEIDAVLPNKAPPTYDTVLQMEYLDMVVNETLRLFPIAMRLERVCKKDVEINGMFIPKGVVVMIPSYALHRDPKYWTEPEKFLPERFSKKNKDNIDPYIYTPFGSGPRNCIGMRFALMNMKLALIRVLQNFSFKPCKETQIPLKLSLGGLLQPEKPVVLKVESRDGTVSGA
T2 sequence (P11712 whole entry): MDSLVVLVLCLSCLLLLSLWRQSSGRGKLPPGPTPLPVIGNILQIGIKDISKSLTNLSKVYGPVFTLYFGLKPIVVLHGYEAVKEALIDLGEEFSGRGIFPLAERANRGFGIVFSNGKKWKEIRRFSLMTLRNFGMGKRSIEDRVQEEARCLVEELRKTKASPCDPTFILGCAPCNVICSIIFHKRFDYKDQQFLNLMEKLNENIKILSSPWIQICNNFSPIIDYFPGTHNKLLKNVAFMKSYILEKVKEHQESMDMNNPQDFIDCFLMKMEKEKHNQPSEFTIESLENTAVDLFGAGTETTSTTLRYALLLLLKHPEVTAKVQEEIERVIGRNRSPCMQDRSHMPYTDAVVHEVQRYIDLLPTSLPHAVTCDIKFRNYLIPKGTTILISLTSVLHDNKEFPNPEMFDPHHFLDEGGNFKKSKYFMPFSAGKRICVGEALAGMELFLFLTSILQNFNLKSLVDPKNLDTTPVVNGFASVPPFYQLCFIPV
T1 sequence (P33261 whole entry): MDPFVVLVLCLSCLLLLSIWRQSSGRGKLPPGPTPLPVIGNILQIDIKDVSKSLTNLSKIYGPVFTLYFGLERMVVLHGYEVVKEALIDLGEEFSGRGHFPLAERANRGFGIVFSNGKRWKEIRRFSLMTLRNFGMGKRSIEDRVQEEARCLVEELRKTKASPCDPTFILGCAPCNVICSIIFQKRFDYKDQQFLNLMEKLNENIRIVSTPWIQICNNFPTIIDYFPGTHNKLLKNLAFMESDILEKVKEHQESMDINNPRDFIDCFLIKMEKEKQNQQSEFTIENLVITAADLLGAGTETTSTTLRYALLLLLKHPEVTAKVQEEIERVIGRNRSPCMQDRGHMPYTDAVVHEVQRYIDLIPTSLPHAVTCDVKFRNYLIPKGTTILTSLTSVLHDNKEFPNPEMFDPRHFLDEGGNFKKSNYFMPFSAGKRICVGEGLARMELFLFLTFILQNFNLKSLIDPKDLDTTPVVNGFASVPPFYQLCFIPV

| Compound | bioavailability [1] [%] | IC50 (CYP2C19) [µM] | IC50 (CYP2C9) [µM] | bioavailability (Rat pharmacokinetic test) [%] | IC50 (CYP3A4; Inhibitory activity on drug-metabolizing enzymes (IC50, µM) CYP3A4-M, substrate midazolam) [µM] | IC50 (CYP3A4; Inhibitory activity on drug-metabolizing enzymes (IC50, µM) CYP3A4-T, substrate testosterone) [µM] | half-life at 1 µM [2] [h] | CLint scaled at 1 µM [2] [mL/min/kg] | IC50 (CYP3A4; [3]) [µM] | IC50 (CYP3A4; [4]) [µM] | IC50 (SOS1) [µM] |
| --- | --- | --- | --- | --- | --- | --- | --- | --- | --- | --- | --- |
| Cc1c(C#N)cccc1[C@@H](C)Nc1nnc(C)c2cnc(N3CCOCC3)cc12 [MRTX0902, reference compound] | 40.4 | 8.62 | 4 | 22.6 | 6.9 | 8.75 | 0.0483 | 51.9 |  |  |  |
| C[C@@H](Nc1nnc(N)c2cc(=O)n(C3CC3)cc12)c1cccc(C(F)F)c1F [Example 75, (R)-1-amino-6-cyclopropyl-4-((1-(3-(difluoromethyl)-2-fluorophenyl)ethyl)amino)pyrido[3,4-d]pyridazin-7(6H)-one] |  | > 10 | > 10 |  |  |  | > 5 | < 7.23 | > 10 | > 10 | 0.0048 |
| C[C@@H](Nc1nnc(N)c2cc(=O)n(C3(C)CC3)cc12)c1cccc(C(F)F)c1F.O=CO [Example 74, (R)-1-amino-4-((1-(3-(difluoromethyl)-2-fluorophenyl)ethyl)amino)-6-(1-methylcyclopropyl) pyrido[3,4-d]pyridazin-7(6H)-one formate] |  | > 10 | > 10 |  |  |  | > 5 | < 7.23 | > 10 | > 10 | 0.0046 |
| CNc1nnc(N[C@H](C)c2cccc(C(F)F)c2F)c2cn(C3CC3)c(=O)cc12 [Example 13, (R)-6-cyclopropyl-4-((1-(3-(difluoromethyl)-2-fluorophenyl)ethyl)amino)-1-(methylamino)pyrid o[3,4-d]pyridazin-7(6H)-one] |  | > 10 | > 10 |  |  |  | 3.97 | 8.8 | > 10 | > 10 | 0.0046 |
